{"source": "patent US11993640B2", "about": "“Treating inflammatory lung disease” (United States Government as represented by the Department …, priority 2019, dated 2024)", "key": {"RT4 cells": {"tested_on": "RT4 cells", "experiment": "In vitro cell viability, urothelial cancer RT4", "assay_type": "cell-based, human", "settings": "5 μM, 72 h; relative to MIA602 = 1; Table 3A", "description": "(§1) The inhibitory effects of the various synthesized GHRH antagonists were tested in cell proliferation assays in various human cancer cell lines including stomach cancer (KATOIII, N87), colon cancer (HT-29), urothelial cancer (J82, RT4), pancreatic cancer (PANC-1, CFPAC-1), prostatic cancer (PC3), breast cancer (MX-1, HCC1806), ovarian cancer (SK-OV-3, OVCAR-3) and lung cancer (HCC827, H460).\n(§2) Cell culture. Human cancer cell lines including pancreatic (PANC-1 and CFPAC-1), lung (HCC827 and H460), stomach (NCI-N87 and KATOIII), urothelial (J82, RT4), prostatic (PC3), breast (MX-1 and HCC 1806), colorectal (HT-29), and ovarian (SK-OV-3 and OVCAR-3) were obtained from the American Type Culture Collection (ATCC) and cultured at 37° C. in a humidified 95% air/5% CO2 atmosphere in the medium recommended by ATCC.\nIn vitro cell viability. Cell viability was analyzed as follows: cancer cells including pancreatic (PANC-1 and CFPAC-1), lung (HCC827 and H460), stomach (NCI-N87 and KATOIII), urothelial (J82, RT4), prostatic (PC3) and breast (MX-1 and HCC 1806), colorectal (HT-29) and ovarian (SK-OV-3 and OVCAR-3) were grown on 96 well plates to ˜60% confluence, the cells were starved for 24 h in culture medium containing 0.5% FBS. Cells were then treated with GHRH antagonists MIA602 AVR compounds at concentrations of 1, 2.5 or 5 μM, or vehicle (0.1% DMSO) in quintuplicates for 72 hours. The medium was replaced every 48 hours. Cell viability was measured using CellTiter 96 aqueous one solution kit (Promega). Inhibitory effects of tested AVR compounds in comparison to that of MIA602 are presented as inhibitory potency.\nInhibitory effects of selected AVR compounds in comparison to that of MIA602 are presented as inhibitory potency (e.g., percentage of inhibition). […] The cell lines tested including lung cancer HCC827 (FIG. 2A), pancreatic cancer CFPAC-1 (FIG. 2B), stomach cancer N87 (FIG. 2C), colon cancer HT-29 (FIG. 2D), breast cancers MX-1 and HCC1806 (FIGS. 2E, F). […]"}, "SK-OV-3 cells": {"tested_on": "SK-OV-3 cells", "experiment": "In vitro cell viability, ovarian cancer SK-OV-3", "assay_type": "cell-based, human", "settings": "* at concentration of 2 μM for 72 h; Table 3B", "description": "as §1, §2\nIn vitro cell viability. Cell viability was analyzed as follows: cancer cells including pancreatic (PANC-1 and CFPAC-1), lung (HCC827 and H460), stomach (NCI-N87 and KATOIII), urothelial (J82, RT4), prostatic (PC3) and breast (MX-1 and HCC 1806), colorectal (HT-29) and ovarian (SK-OV-3 and OVCAR-3) were grown on 96 well plates to ˜60% confluence, the cells were starved for 24 h in culture medium containing 0.5% FBS. […] Cell viability was measured using CellTiter 96 aqueous one solution kit (Promega). […]"}, "SK-OV-3 xenograft": {"tested_on": "SK-OV-3 xenograft", "experiment": "Xenograft tumor growth in nude mice, ovarian cancer SK-OV-3", "assay_type": "in vivo", "settings": "Panel L, 7 weeks, 5 μg/day s.c.", "description": "The peptides' activity was compared with GHRH antagonist MIA-602. All statistical analyzses were performed from comparing GHRA antagonists to non-treated tumor (control).\nPeptides and chemicals. GHRH antagonists MIA-602 and AVR-GHRH antagonists (see Table 2 above) were synthesized by solid phase methods and purified by HPLC. The peptides were dissolved in DMSO and further diluted in 10% 1, 2-propanediol. The final concentration of peptides was 50 µg/ml in 10% 1, 2-propanediol containing 0.1% of DMSO.\nas §2, with “(NCI-N87), prostate” for “(NCI-N87 and KATOIII), urothelial (J82, RT4), prostatic”, “brest” for “breast”, “HCC-1806),” for “HCC 1806),”\nXenograft models of human cancers in nude mice. Female athymic (NCr nu/nu) nude mice, 5-to 6-weeks-old, obtained from the Envigo labs (Tampa, FL), were housed in laminar airflow cabinets under pathogen-free conditions with a 12-h light/12-h dark schedule, and were fed autoclaved standard chow and water. To generate mice with xenografted tumors, tumor xenografts were initiated by subcutaneous (s.c.) injection of […] human cancer cells into female nude mice. After about 4 weeks the resulting tumors were dissected and collected after removing necrosis tissues. The tumors were then cut into particles with size of ˜3 mm3 and transplanted s.c. by trocar needle into experimental animals. When tumors grew to the size of 50-60 mm3 (by volume), mice were randomized into groups and treated daily for 4-8 weeks by subcutaneous administration of 5 μg of GHRH antagonists MIA-602 or AVR-compounds (2-10 μg as indicated), or vehicle solutions (0.1% DMSO in 10% 1, 2-propanediol) respectively. Tumor sizes were measured weekly.\nStatistical analysis. One-way ANOVA followed by Bonferroni comparison were performed. Data are expressed as Mean±SEM. To determine statistical significance between animal groups, two-tailed Student's t-test was conducted. Differences were considered significant when p<0.05.\nResults. […] FIG. 1A-N represents in vivo inhibition of tumor growth during the treatment with GHRH antagonist MIA-602 and selected AVR antagonists in nude mice xenografted with various human tumors including pancreatic cancer PANC-1 (FIG. 1A) and CFPAC-1 (FIG. 1I); lung cancer HCC827 (FIGS. 1B, C) and H460 (FIG. 1H); stomach cancer N87 (FIGS. 1D-F); colon cancer HT-29 (FIG. 1G); breast cancer MX-1 and HCC-1806 (FIGS. 1J, K); ovarian cancer SK-OV-3 and OVACAR-3 (FIGS. 1L, M) and prostate cancer PC3 (FIG. 1N). See also Table 5."}}, "note": "Non-standard residues stand in square brackets, D forms with d. Residues, ends and D or L forms follow the SMILES beside them. *: point of attachment. Phe(F5) = N[C@@H](Cc1c(F)c(F)c(F)c(F)c1F)C(=O)O; hArg = N=C(N)NCCCC[C@H](N)C(=O)O; 12Ado = NCCCCCCCCCCCC(=O)O; Nle = CCCC[C@H](N)C(=O)O; Orn = NCCC[C@H](N)C(=O)O; Abu = CC[C@H](N)C(=O)O; PhAc = O=C(Cc1ccccc1)*", "data": [{"smiles": "CCCC[C@H](NC(=O)[C@@H](NC(=O)[C@H](CC(=O)O)NC(=O)[C@H](CCC(N)=O)NC(=O)[C@H](CC(C)C)NC(=O)[C@H](CC(C)C)NC(=O)[C@H](CCCN)NC(=O)[C@H](Cc1c[nH]cn1)NC(=O)[C@H](C)NC(=O)[C@H](CO)NC(=O)[C@H](CC(C)C)NC(=O)[C@H](CCC(N)=O)NC(=O)[C@H](CC)NC(=O)[C@H](CC(C)C)NC(=O)[C@@H](NC(=O)[C@H](CCCN)NC(=O)[C@H](Cc1c[nH]cn1)NC(=O)[C@H](Cc1ccc(OC)cc1)NC(=O)[C@H](CCCCNC(=N)N)NC(=O)[C@H](C)NC(=O)[C@@H](NC(=O)[C@H](Cc1c(F)c(F)c(F)c(F)c1F)NC(=O)[C@@H](NC(=O)[C@H](C)NC(=O)[C@H](CC(=O)O)NC(=O)[C@@H](CCCNC(=N)N)NC(=O)[C@H](Cc1ccc(O)cc1)NC(=O)CCCCCCCCCCCNC(=O)Cc1ccccc1)[C@@H](C)CC)[C@@H](C)O)C(C)C)[C@@H](C)CC)C(=O)N[C@H](CCCNC(=N)N)C(=O)N[C@@H](CCCCNC(=N)N)C(N)=O", "note": "[MIA-602, PhAC-Ada, Tyr D-Arg, Asp, Ala, Ile, 5FPhe, Thr, Ala, Har, Tyr(Me), His, Orn, Val, Leu, Abu, Gin, Leu, Ser, Ala, His, Orn, Leu, Leu, Gin, Asp, Ile, Nle, D-Arg, Har NH2, reference compound] ({PhAc-12Ado}-Y[dR]DAI[Phe(F5)]TA[hArg]Y(Me)H[Orn]VL[Abu]QLSAH[Orn]LLQDI[Nle][dR][hArg]-NH2)", "values": [{"measurement": "Relative inhibitory potency, Urothelial RT4", "setting": "RT4 cells", "value": 1}, {"measurement": "In vitro relative inhibitory potency in comparison to MIA-602, SKOV-3", "setting": "SK-OV-3 cells", "value": 1}, {"measurement": "Tumor Growth %", "setting": "SK-OV-3 xenograft", "value": 810.1, "unit": "%"}, {"measurement": "% Inhibition", "setting": "SK-OV-3 xenograft; vs control", "value": 38.0, "unit": "%"}]}]}
